The values that follow come from patent US10195195B2, “Selective histamine H4 receptor antagonists for the treatment of vestibular disorders” (INSERM (Institut National de la Sante de la Recherche …, priority 2008, dated 2019).

Molecules are shown by their SMILES. “Also recorded” adds a separate entry of the source. Where two headings read alike, the source gives them in different places.

Assay [1] concerns vestibular ganglion neurons. As to the kind of experiment: Patch-clamp (current-clamp) recording of depolarization-induced firing volley and membrane potential in cultured vestibular ganglion neurons. The format is cell-based, Wistar rats. The note with it: for IC50: cultured rat vestibular neurons; for inhibition at 0.1 µM: 100 nM (0.1 μM); for depolarization of the neurons: 5 mM; for variation of membrane potentials (qualitative): FIG. 4, high concentrations; for reversibility of the firing inhibition during rinse with control medium: perfusion of control medium after drug. Here is the method:
Cell culture: Vestibular ganglion neurons were explanted aseptically from 2 to 6 days-old Wistar rats (Centre d'Elevage Janvier, Le Genest-Saint-Isle, France). All procedures were carried out in accordance to the French/European Communities Council Directive 86/609/EEC. The brainstem was hemi-sectioned and the eighth nerve was followed up to the level of the otocyst and cut just rostral to it.
The vestibular ganglia were excised, placed in Leibovitz medium (L15, Invitrogen, Cergy Pontoise, France), and dissociated by enzymatically (collagenase 0.75 mg/ml, dispase 1 mg/ml and dnase 0.75 mg/ml, 15 min at 25° C.). Enzymes were washed with Tyrode solution without Ca^2+ and Mg^2+, and the ganglion neurons were gently dissociated in culture medium with a pipette. The neurons were plated onto culture dishes previously coated with 5 μg/ml poly-L-ornithine, 10 μg/ml laminin and subsequently filled with 0.5 ml of a 1:1 mixture of Dulbecco's modified eagle medium and Ham's F-12 medium (Invitrogen) supplemented with 2% N2 nutrient glucose (5 g/l), glutamine (1.5 mM), sodium bicarbonate (1.1 g/l), HEPES buffer (15 mM, pH 7.4), AraC 2 μM, brain-derived neurotrophic factor 10 μg/ml and 1% penicillin/streptomycin. The low density cultures were then maintained at 37° C. in 5% CO2 for 7 to 8 days prior patch-clamp experiments.
Patch-clamp recordings: Whole-cell (current-clamp configuration) recording of responses were obtained using an Axopatch 200B amplifier (Axon Instruments; Molecular Devices Corp., Sunnyvale, Calif., USA). The extracellular solution contained (in mM): NaCl 135, HEPES 10, glucose 10, MgCl2 1, KCl 5, and CaCl2 4, pH 7.35 (with NaOH). Recording pipettes (2-3 MΩ) were drawn from microhematocrit tubes (Modulohm I/S Herlev, Denmark) and filled with the following solution (in mM): KCl 135, HEPES 10,glucose 10, NaCl5, EGTA 5, Mg-ATP3, GTP-Na 1, pH 7.35 (with KOH). The osmolarity of all solutions was set to 300 mOsm/I^−1. Experimental parameters and data acquisition were controlled with a PC computer and a Tecmar Labmaster analogue interface (Axon instruments, CA). Voltage transients were recorded from neurons presenting resting potentials lying between −45 and −65 mV. Trains of action potentials (APs) were elicited using 1 s, 200 pA depolarizing pulses applied every 6.5 s. Current signals were filtered at 10 KHz, digitized and stored using pCLAMP software (v 10.2, Axon instruments).
Drug application : The control and test solutions were applied using a multiple capillary perfusion system (flow rate 500 μl/min). After each application of the tested drug, the cells were washed with control buffer.
Data analysis and statistical methods : The results are expressed as means±S.E.M. The number of sample size (n) given is the number of neurons tested. Variations of the membrane potential and the number of APs were analysed using pCLAMP software (v10.2, Axon instruments). Drug concentration-effect relationships were fitted with a Hill equation of the form I(x)=A*xn/(IC50n+xn).

The test system of assay [2] is peripheral vestibular receptors isolated from axolotl. The note with it: cited from earlier work.
Another assay has as its target T1, human H3 receptor (Homo sapiens, UniProt Q9Y5N1).
T1 construct: expressed in transfected cells; host or cells: SK-N-MC or HEK293 T
The note with it: radioligand, transfected cell membranes; cited from earlier work.

[3] abbreviates: Neuron, dose-response fitted with Hill equation, read-out: IC50 of inhibition of the firing volley induced by standard depolarization.
The mark [4] stands for this setting: Rattus norvegicus, Neuron, tonic discharge.

T1 sequence (Q9Y5N1 whole entry): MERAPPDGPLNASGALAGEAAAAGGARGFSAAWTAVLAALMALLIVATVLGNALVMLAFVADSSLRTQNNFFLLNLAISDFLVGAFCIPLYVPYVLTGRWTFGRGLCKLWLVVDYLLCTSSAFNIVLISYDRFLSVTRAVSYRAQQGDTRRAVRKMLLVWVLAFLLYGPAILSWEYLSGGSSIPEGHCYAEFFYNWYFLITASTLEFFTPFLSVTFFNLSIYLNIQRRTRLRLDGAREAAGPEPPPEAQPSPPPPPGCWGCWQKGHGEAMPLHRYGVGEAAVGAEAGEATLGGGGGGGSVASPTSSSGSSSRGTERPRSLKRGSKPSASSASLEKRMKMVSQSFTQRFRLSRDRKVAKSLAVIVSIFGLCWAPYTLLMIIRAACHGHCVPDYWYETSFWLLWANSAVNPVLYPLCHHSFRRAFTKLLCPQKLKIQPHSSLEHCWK

By IC50 is commonly meant the concentration that gives 50% inhibition. A word on the inhibition: it is how much of the control response was suppressed. `CN1CCN(C(=O)c2cc3cc(Cl)ccc3[nH]2)CC1` [JNJ 7777120, 1-[(5-chloro-1H-indol-2-yl)carbonyl]-4-methylpiperazine]: the IC50 in assay [1] (setting [3]) was 10 µM. Moreover, in assay [1] (setting [4]), the inhibition at 0.1 µM was found to be 3%, the inhibition at 1 µM was 29% and the inhibition at 10 µM was 41%. The membrane depolarisation entry in assay [1] (high concentration application (1 mM)) is “did not induce membrane depolarisation”.
`CNCCc1ccccn1.Cl.Cl` [betahistine, betahistine dihydrochloride]: the “concentration of maximum effect on afferent discharge” value in assay [2] is “around 10 mM”. Further, the IC50 in assay [2] (read-out: IC50 of inhibition of the afferent discharge) was 800 µM; in assay [1] (dose-response relationship, read-out: IC50 of inhibition of the discharge volley) it was 2200 µM. In addition, the “effect on membrane potential” value in assay [1] (2 mM application) is on record as “not affected”. The “depolarization of the neurons” value was “about 15 mV” in assay [1] (dihydrochloride) and 14.3±4.7 mV in assay [1] (listed as BH, dihydrochloride). Further, the “variation of membrane potentials (qualitative)” value (from here on “variation of membrane potentials”) is “pronounced depolarisation of the neurons” in assay [1] (dihydrochloride) and “strong depolarisations at high concentrations” in assay [1] (listed as betahistidine, dihydrochloride). Also, the “reversibility of the firing inhibition during rinse with control medium” value in assay [1] (dihydrochloride) is on record as “rapidly reversed during rinse with control medium”; in assay [1] (listed as BH, dihydrochloride) it was “rapidly abolished”. Further, the “concentration of maximum inhibition of the discharge volley” value in assay [1] (standard depolarization stimulation) is recorded as “around 10 mM”.
On to `O=C(O)/C=C\C(=O)O.S=C(NC1CCCCC1)N1CCC(c2c[nH]cn2)CC1` [thioperamide, N-cyclohexyl-4-(1H-imidazol-4-yl)-1-piperidinecarbothioamide maleate], for which the “membrane depolarisation at low concentration” value in assay [1] (0.01 to 10 μM) is given as “without depolarizing the neurons”. For the same molecule, in assay [1] (maleate), the “variation of membrane potentials” value is listed as “strong depolarisations at high concentrations; also recorded: strong membrane depolarisations; also recorded: pronounced depolarisation of the neurons”. Further, the IC50 in assay [1] (setting [3]) turned out to be 100 µM. In assay [1] (setting [4]), this molecule gave an inhibition at 0.1 µM of 10% and an inhibition at 10 µM of 24%. Moreover, the inhibition at 500 µM in assay [1] (Rattus norvegicus, Neuron, 500 μM, read-out: inhibition of the firing (blocked activity)) came to 87%. In addition, the “reversibility of the firing inhibition during rinse with control medium” value in assay [1] is on record as “only slightly reversible”.
In general, Kd refers to the concentration at which binding is half-saturated. For `CNCCc1cnc[nH]1` [[^3H]N-a-methyl histamine], the Kd at human H3 receptor was 0.001 µM.
With `CN1CCN(C(=O)c2nc3cc(Cl)ccc3[nH]2)CC1` [VUF 6002, 1-[(5-chloro-1H-benzimidazol-2-yl)carbonyl]-4-methylpiperazine], in assay [1], the “action potentials intrinsic properties (spike amplitude, time to peak, rise and decay time constants)” value is given as “not affected”; the “variation of membrane potentials” value was “did not induce membrane variations”; the “reversibility of the firing inhibition during rinse with control medium” value is “reversed during rinse with control medium; also recorded: totally reversed”. The membrane hyperpolarization entry in assay [1] (100 μM) is “about −3 mV”. Further, in assay [1] (100 μM, tonic discharge), the “inhibition of the firing” value was 90%. The “effect on firing, phasic discharge pattern” value in assay [1] (1 mM, neurons with phasic discharge, n=6) was “completely abolished the firing”. Also, the IC50 in assay [1] (setting [3]) worked out at 5.8 µM. Also, in assay [1] (setting [4]), testing at 0.1 µM gave an inhibition of 20%, the inhibition at 1 µM was found to be 37% and the inhibition at 10 µM turned out to be 55%. At 100 µM the inhibition in assay [1] (Rattus norvegicus, Neuron, 100 μM, tonic discharge) was 91%. For the same molecule, in assay [1] (dose-response between 1 nM and 1 mM), the “concentration of maximum inhibition of the firing” value was “around 100 μM”.
